One block for each compound: values may come before it.
How the values were obtained:
Format in all cases: cell-based
[1] = target: T1, SVCT1 (Homo sapiens, UniProt Q9UHI7); test: inhibition of […]-vitamin C uptake in SVCT1-expressing […] cells (urate uptake IC50 […])
T1 construct: gene SLC23A1

[2] = target: T1, SVCT1; test: as above; remark: listed apart in the source
[3] = target: T1, SVCT1; test: as above; remark: listed apart in the source
[4] = target: T2, GLUT9a (Homo sapiens, UniProt Q9NRM0); test: [[…]-14C]-urate uptake in GLUT9a-expressing cells, high-potassium buffer
T2 construct: gene SLC2A9; full-length human GLUT9a/SLC2A9a WT in pEGFP-N1
T2 sequence (Q9NRM0 1-540): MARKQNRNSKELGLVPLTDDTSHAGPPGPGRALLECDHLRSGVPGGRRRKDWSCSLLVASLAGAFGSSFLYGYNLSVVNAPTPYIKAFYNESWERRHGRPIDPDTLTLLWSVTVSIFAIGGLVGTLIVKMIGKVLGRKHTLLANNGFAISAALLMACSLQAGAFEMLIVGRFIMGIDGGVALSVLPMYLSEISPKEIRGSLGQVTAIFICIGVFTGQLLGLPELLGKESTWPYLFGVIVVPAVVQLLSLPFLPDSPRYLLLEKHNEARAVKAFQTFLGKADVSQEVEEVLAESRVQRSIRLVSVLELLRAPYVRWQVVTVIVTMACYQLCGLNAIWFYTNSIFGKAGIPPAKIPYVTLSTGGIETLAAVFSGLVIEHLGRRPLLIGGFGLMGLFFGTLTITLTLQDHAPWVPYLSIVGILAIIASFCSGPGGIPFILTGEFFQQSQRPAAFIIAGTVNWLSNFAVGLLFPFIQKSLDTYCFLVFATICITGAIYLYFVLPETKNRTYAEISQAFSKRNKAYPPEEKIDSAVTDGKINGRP

[5] = target: T3, URAT1 (Homo sapiens, UniProt Q96S37); test: [[…]-14C]-urate uptake in URAT1-expressing HEK293 cells
T3 construct: gene SLC22A12; full-length human URAT1 WT in pEGFP-C1
T3 sequence (Q96S37 1-553): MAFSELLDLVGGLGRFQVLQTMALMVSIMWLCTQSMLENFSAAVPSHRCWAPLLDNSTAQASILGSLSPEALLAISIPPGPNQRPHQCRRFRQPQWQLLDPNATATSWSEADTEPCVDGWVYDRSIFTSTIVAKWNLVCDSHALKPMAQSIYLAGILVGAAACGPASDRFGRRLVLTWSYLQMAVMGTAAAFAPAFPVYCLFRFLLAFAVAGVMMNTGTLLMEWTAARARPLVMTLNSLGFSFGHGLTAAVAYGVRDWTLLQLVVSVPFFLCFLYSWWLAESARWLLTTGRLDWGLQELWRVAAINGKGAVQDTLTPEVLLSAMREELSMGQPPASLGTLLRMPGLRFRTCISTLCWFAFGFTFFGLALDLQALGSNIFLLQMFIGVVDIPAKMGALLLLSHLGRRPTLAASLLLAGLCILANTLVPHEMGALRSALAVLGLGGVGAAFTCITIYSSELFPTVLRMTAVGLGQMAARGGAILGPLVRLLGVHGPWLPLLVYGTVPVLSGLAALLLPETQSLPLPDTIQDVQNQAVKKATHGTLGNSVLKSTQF

[6] = target: T4, ABCG2 (Homo sapiens, UniProt Q9UNQ0)
T4 construct: EGFP-ABCG2 in plasma membrane vesicles from 293A cells
T4 sequence (Q9UNQ0 1-655): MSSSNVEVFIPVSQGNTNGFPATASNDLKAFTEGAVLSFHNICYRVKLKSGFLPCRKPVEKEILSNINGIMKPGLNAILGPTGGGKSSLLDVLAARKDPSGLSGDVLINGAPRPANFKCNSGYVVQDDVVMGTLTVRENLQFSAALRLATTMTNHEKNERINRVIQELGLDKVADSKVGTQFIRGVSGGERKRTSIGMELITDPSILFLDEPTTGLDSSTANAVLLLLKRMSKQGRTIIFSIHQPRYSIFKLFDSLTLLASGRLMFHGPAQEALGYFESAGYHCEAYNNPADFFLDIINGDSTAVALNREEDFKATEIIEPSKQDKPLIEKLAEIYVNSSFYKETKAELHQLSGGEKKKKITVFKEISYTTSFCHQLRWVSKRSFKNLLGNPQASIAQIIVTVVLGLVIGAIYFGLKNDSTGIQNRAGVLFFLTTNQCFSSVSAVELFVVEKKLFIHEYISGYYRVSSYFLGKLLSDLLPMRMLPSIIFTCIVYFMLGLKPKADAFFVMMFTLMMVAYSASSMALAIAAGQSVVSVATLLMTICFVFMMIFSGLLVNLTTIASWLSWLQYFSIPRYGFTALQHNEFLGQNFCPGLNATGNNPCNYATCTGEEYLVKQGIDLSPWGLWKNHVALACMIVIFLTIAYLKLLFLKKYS

[7] = target: T1, SVCT1; test: […]-vitamin C uptake and inhibition of […]-urate uptake in SVCT1-expressing HEK293 cells
[8] = target: T5, Svct1 (Mus musculus, UniProt Q9Z2J0); test: […]-vitamin C uptake and inhibition of […]-urate uptake in Svct1-expressing HEK293 cells
T5 construct: gene Slc23a1; mouse Svct1 WT, EGFP fusion
T5 sequence (Q9Z2J0 whole entry, the tested form may be a part): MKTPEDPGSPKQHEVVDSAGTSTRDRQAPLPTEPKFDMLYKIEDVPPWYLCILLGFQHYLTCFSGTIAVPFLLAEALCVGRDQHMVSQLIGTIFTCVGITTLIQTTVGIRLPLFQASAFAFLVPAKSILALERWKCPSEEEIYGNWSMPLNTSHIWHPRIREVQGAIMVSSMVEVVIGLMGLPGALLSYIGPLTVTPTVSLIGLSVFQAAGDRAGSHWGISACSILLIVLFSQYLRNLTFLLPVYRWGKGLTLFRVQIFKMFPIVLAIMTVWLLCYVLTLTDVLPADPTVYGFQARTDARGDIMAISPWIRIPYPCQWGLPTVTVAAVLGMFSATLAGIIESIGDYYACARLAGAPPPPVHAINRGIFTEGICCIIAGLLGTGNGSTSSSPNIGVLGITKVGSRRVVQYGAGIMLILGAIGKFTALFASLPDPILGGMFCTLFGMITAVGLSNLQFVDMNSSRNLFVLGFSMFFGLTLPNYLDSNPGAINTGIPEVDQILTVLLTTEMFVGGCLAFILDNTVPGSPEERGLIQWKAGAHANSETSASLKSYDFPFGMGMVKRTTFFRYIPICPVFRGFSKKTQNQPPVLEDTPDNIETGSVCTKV

T1 sequence (Q9UHI7 whole entry): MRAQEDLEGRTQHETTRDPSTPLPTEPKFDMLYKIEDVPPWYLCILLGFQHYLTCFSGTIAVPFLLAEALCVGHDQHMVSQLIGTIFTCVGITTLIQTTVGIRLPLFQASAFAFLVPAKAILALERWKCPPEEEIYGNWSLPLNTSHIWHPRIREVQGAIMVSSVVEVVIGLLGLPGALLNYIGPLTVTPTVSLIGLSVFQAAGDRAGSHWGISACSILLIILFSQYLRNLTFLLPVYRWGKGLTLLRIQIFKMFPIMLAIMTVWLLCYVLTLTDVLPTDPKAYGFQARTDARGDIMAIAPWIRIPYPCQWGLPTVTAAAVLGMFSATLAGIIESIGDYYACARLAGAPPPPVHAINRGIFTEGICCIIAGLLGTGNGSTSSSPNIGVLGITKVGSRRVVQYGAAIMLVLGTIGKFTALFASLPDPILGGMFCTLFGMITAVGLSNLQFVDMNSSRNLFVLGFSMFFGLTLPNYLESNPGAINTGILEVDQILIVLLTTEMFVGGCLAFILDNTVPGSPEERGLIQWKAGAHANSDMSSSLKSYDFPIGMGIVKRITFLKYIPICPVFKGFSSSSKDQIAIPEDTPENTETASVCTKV

IC50 [1]: 2.86 µM
Structure (SMILES): CCc1oc2cc(O)ccc2c1C(=O)c1cc(Br)c(O)c(Br)c1 [6-OH BBR, 6-hydroxybenzbromarone]

Structure (SMILES): CCc1oc2ccccc2c1C(=O)c1cc(Br)c(O)c(Br)c1 [BBR, benzbromarone]
IC50 [2]: 8.39 µM

IC50 [3]: 11.8 µM
Structure (SMILES): O=C(c1cc(Cl)c(O)c(Cl)c1)N1CS(=O)(=O)c2ccccc21 [DU, dotinurad]

Structure (SMILES): O=c1[nH]c(=O)c2[nH]c(=O)[nH]c2[nH]1 [urate]
[8-14C]-urate uptake in GLUT9a-expressing cells, high-potassium buffer [4]: Even under appropriate experimental conditions in which urate transport activities were detected, neither URAT1, GLUT9, nor ABCG2 could transport vitamin C
[8-14C]-urate uptake in URAT1-expressing HEK293 cells [5]: Even under appropriate experimental conditions in which urate transport activities were detected, neither URAT1, GLUT9, nor ABCG2 could transport vitamin C
[8-14C]-urate vesicle transport assay with ABCG2-expressing membrane vesicles [6]: Even under appropriate experimental conditions in which urate transport activities were detected, neither URAT1, GLUT9, nor ABCG2 could transport vitamin C

Structure (SMILES): O=C1O[C@H]([C@@H](O)CO)C(O)=C1O [vitamin C]
IC50 [7]: 95.1 µM
IC50 [8]: 130 µM

Reference: article PMC10011331, “Vitamin C transporter SVCT1 serves a physiological role as a urate importer: functional analyses and in vivo investigations” (Pflugers Archiv, 2023)
